Experiment: gradient 5% acetonitrile 3 min, to 50% in 2 min, to 85% in 15 min, held 3 min, 100 µL/min
Settings: column: Zorbax Extend-C18 2.1 x 50 mm; eluents: water / acetonitrile, 0.1% formic acid
Outline: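 Pure standards were run in mixtures of ~100 molecules by HPLC coupled to a quadrupole time-of-flight mass spectrometer. The column was a Zorbax Extend-C18 (2.1 × 50 mm, 1.8 μm) at 100 μL/min, with water and acetonitrile each containing 0.1% formic acid, in positive and negative ionization mode. Dead and dwell volumes were 40 μL and 900 μL. Retention time was taken from computationally picked adduct peaks, each manually inspected, with data collected over 3 months.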

| SMILES | RP-LC retention time [s] |
| --- | --- |
| Clc1cccc(-c2noc3ncnc(N4CCN(c5ccccn5)CC4)c23)c1 | 716 |
| CN(CC1CCOCC1)S(=O)(=O)Cc1ccccc1Cl | 834 |
| COC(=O)CNC(=O)C1CN(C(=O)c2ccccc2)CC12CCCCC2 (configuration not stated) | 731 |
| Cc1cc(C(=O)NCCN2CCCCCC2)c2c(=O)n(C)c(=O)n(C)c2n1 | 592 |
| COc1cccc(-c2cc3n(n2)CCCN(C(=O)Cc2ccsc2)C3)c1 | 587 |
| CCC(=O)n1nc(C)c(S(=O)(=O)N2CCC(C)CC2)c1C | 1150 |
| COc1ccc(C2(C(=O)NCC34CCCC=C3NC(=O)CC4)CC2)cc1 (configuration not stated) | 776 |
| COc1cccc(-c2ccnc3nc(Cc4ccc(F)cc4)nn23)c1 | 922 |
| CC1=C/C(=C2/N=C(N(C)C)SS2)C(C)=N1 | 611 |
| C=C1C(=O)O[C@@H]2[C@H]3O[C@]3(C)CC/C=C(\C)CC[C@@H]12 | 898 |
| O=C(Nc1ccc(N2CCOCC2)cc1)C1CCCN(c2ncc(-c3cccc(F)c3)cn2)C1 (configuration not stated) | 969 |
| CCc1cc(=O)n(Cc2cccc(F)c2)c(N2CCOCC2)n1 | 909 |
| Cc1cc(C)c2c(N3CCSCC3)nc(C(=O)NCCCN3CCCC3)nc2n1 | 552 |
| Cc1ccc(-n2nc(C)c3c(C)cc(OCC(=O)NCc4ccc5c(c4)OCO5)nc32)cc1 | 1060 |
| CCOc1ccc(-c2[nH]ncc2CNS(=O)(=O)c2ccc(OC)c(Cl)c2)cc1 | 860 |
| O=C(NCc1ccc(F)cc1Cl)c1csc(C(=O)NC2CCCC2)n1 | 968 |
| Cc1cccc(OCc2ccc(-c3nc(C#N)c(NCCN(C)C)o3)o2)c1 | 708 |
| CCCS(=O)(=O)N1CC[C@@H]2CN(Cc3ccccc3)[C@@H]2C1 | 607 |

| SMILES | RP-LC retention time [s] |
| --- | --- |
| CC(C)c1nc(-c2ccc(C(=O)N3CCN(c4nc5cccnc5o4)CC3)cc2)no1 | 828 |
| CCn1cc(CCN2CCN(S(=O)(=O)c3cc(C)cc(C)c3)CC2)c2cccnc21 | 698 |
| CCN1CCN(C(=O)C(C)C2CCN(S(=O)(=O)c3ccc(Cl)s3)CC2)CC1 (configuration not stated) | 666 |
| COCc1nc(-c2ccc(OC3CCN(Cc4ccc(C(F)(F)F)cc4)C3)cc2)no1 (configuration not stated) | 751 |
| CC1CCN(C(=O)C2CCN(S(=O)(=O)c3ccc(-c4noc(C5CC5)n4)cc3)CC2)CC1 | 1040 |
| CCn1cc(C)c(C(=O)O)c1CC(=O)N1CCOCC1 | 619 |
| COC1CCC12CCN(C(=O)c1ccco1)CC2 (configuration not stated) | 735 |
| CC(C)c1ccc(Sc2ccc(N3CCC(C(=O)NCCCO)CC3)nn2)cc1 | 703 |
| COc1cccc(CNC(=O)CN2C(=O)NC3(CCC(C(C)(C)C)CC3)C2=O)c1OC (configuration not stated) | 943 |
| C=CCNC(=O)c1nc(C(=O)N2CCCCCC2)cs1 | 733 |
| COc1cc(-c2cc(C(=O)O)c3cc4c(cc3n2)OCCO4)cc(OC)c1OC | 676 |
| CCn1nccc1-c1cccc(-c2noc(-c3cccnc3Cl)n2)c1 | 1040 |
| Cc1nsc2ncc(C(=O)N3CCOCC3)c(N3CCC(C(=O)Nc4ccc(F)cc4Cl)CC3)c12 | 811 |
| CN1CCN(CCNC(=O)C2CCN(Cc3cn(C)c4ccc(Cl)cc34)CC2)CC1 | 570 |
| O=C(Cn1nc2c(N3CCCCCC3)nccn2c1=O)NCc1cc(F)cc(F)c1 | 744 |
| CCc1ccc(CNC(=O)C2CCCN(C(=O)c3[nH]c(C)c(C(=O)OC)c3C)C2)cc1 (configuration not stated) | 845 |
| CCCNS(=O)(=O)c1c(C)sc(C)c1-c1cc(C(F)(F)F)on1 | 1130 |

Next, values leading:

| RP-LC retention time [s] | SMILES |
| --- | --- |
| 909 | Cc1ccc(C)c(-c2cc3c4nn(CC(=O)NC5CCCC5)c(=O)n4ccn3n2)c1 |
| 902 | Cc1nc(-c2ccccc2)cc2nn(CC(=O)NCc3ccc(F)cc3F)c(=O)n12 |
| 801 | O=C(NCc1ccc(F)c(Cl)c1)c1cn(-c2ccc(NC(=O)C3CC3)cn2)cn1 |
| 1030 | COC(=O)c1ccc2c(=O)n(-c3ccccc3)c(N3CCSCC3)nc2c1 |
| 645 | Cc1cccc(Nc2nc(C)c(C(=O)NC3CCN(Cc4ccccc4)CC3)s2)n1 |
| 781 | O=C(COc1coc(CN2CCc3ccccc32)cc1=O)NCc1ccc2c(c1)OCO2 |
| 822 | O=c1onc2cnc3ccccc3n12 |
| 692 | CC(NC(=O)C(=O)N1CCOCC1)C(c1cccs1)N1CCN(c2ccccc2F)CC1 (configuration not stated) |
| 634 | CC1=C(C(=O)NCCN2CCOCC2)C2(CCN(Cc3ccccc3)CC2)OC1=O |
| 694 | Cn1c(-c2ccccc2)nn(CCNC(=O)c2cc3ccccc3o2)c1=O |
| 871 | O=C(CCc1ccccc1)Nc1ccc2c(c1)N(C(=O)c1ccco1)CCC2 |
| 871 | CC(C(=O)N1CCCc2ccccc21)n1nc(-c2ccc3c(c2)OCCO3)ccc1=O (configuration not stated) |
| 797 | O=C(c1cc(-c2ccc(F)c(F)c2)on1)N1CCC(Cn2cccn2)CC1 |
| 725 | Cc1noc(C)c1CNC(=O)Cc1ccccc1Cl |
| 594 | COCCN1C(=O)c2cccn2CC1CNC(=O)c1ccc(Cc2c(C)n[nH]c2C)o1 (configuration not stated) |
| 969 | CC(C)Cn1cc(CCNS(=O)(=O)Cc2cccc(Cl)c2)c2cccnc21 |

| RP-LC retention time [s] | SMILES |
| --- | --- |
| 732 | COc1cccc(NC2=NS(=O)(=O)c3ccccc32)c1 |
| 1160 | CCOCCCNS(=O)(=O)c1cccc(-c2nc(-c3ccc(C)cc3)no2)c1 |
| 726 | O=C(Cn1c(-c2cccs2)cc2cc(Cl)ccc21)NCCCN1CCOCC1 |
| 705 | Cc1ccc(-c2cc3c(=O)n(Cc4noc(CN5CCCC(C)C5)n4)ccn3n2)cc1 (configuration not stated) |
| 692 | Cc1nn2c(CNC(=O)c3ccc(C(F)(F)F)cc3)c(C)nc2s1 |
| 806 | CC(C)(C)c1[nH]cnc1/C=c1\[nH]c(=O)/c(=C/c2ccccc2)[nH]c1=O |
| 917 | CN(C(=O)CN(Cc1ccc(Cl)cc1)S(=O)(=O)c1cccnc1)c1ccccc1 |
| 818 | Cc1sc2ccn(C)c(=O)c2c1C(=O)Nc1ccccc1 |
| 1050 | CCc1ccc(CNC(=O)CN2CCc3ccccc3C2C(=O)N2CCC(C)CC2)cc1 (configuration not stated) |
| 556 | COc1cn2c(cc1=O)C(=O)N(CCNC(=O)c1ccc(Br)o1)CC2 |
| 590 | Cc1ccc(NC(=O)CCNc2cnc3cnccn23)cc1Cl |
| 870 | CCc1nn2c(CNC(=O)c3ccccc3)c(-c3ccccc3)nc2s1 |
| 560 | CN(C)c1ccc2c(c1)CN(C(=O)c1cnn(C)c1)CCO2 |
| 586 | O=C(NCCN1CCN(C(=O)c2cccs2)CC1)Nc1ccc(C(F)(F)F)cc1 |
| 974 | COc1ccc(CNC(=O)c2c(C)sc3ccn(Cc4ccc(F)cc4)c(=O)c23)cc1 |
| 892 | CC1(C)COc2ccc(NC(=O)c3cccc(Br)c3)cc2NC1=O |

Reference: the METLIN SMRT retention time set (Domingo-Almenara et al. 2019)
